Active and inactive are the calls of the source. No rule for the calls is given here.
Test system: rodent lifetime carcinogenesis bioassay, tumor incidence TD50
Assay: chronic cancer bioassays in animals – CPDB, compiled studies (AID 1745844)

## CC1(C)COC1=O
mouse, strain B6C3F1, females, by gavage, site: any site (literature study), lesion: several types, types named in the paper, dosed 102 weeks, study length 103 weeks
  TD50: 179 mg/kg/day (inactive)
mouse, strain B6C3F1, females, by gavage, site: lung, lesion: alveolar/bronchiolar adenoma + alveolar/bronchiolar carcinoma, dosed 102 weeks, study length 103 weeks
  TD50: 482 mg/kg/day
mouse, strain B6C3F1, males, by gavage, site: any site (literature study), lesion: several types, types named in the paper, dosed 102 weeks, study length 103 weeks
  carcinogen call: negative (inactive)
mouse, strain B6C3F1, males, by gavage, site: lung, lesion: alveolar/bronchiolar adenoma + alveolar/bronchiolar carcinoma, dosed 102 weeks, study length 103 weeks
  TD50: 435 mg/kg/day
rat, strain Fischer 344, females, by gavage, site: any site (literature study), lesion: several types, types named in the paper, dosed 103 weeks, study length 105 weeks
  TD50: 200 mg/kg/day
rat, strain Fischer 344, females, by gavage, site: stomach, lesion: squamous-cell carcinoma + squamous-cell papilloma, dosed 103 weeks, study length 105 weeks
  TD50: 333 mg/kg/day
rat, strain Fischer 344, males, by gavage, site: any site (literature study), lesion: several types, types named in the paper, dosed 103 weeks, study length 105 weeks
  TD50: 181 mg/kg/day
rat, strain Fischer 344, males, by gavage, site: liver, lesion: hepatocellular adenoma + hepatocellular carcinoma + neoplastic nodule, dosed 103 weeks, study length 105 weeks
  TD50: 850 mg/kg/day
rat, strain Fischer 344, males, by gavage, site: stomach, lesion: squamous-cell carcinoma + squamous-cell papilloma, dosed 103 weeks, study length 105 weeks
  TD50: 154 mg/kg/day
rat, strain Fischer 344, males, by gavage, site: stomach, lesion: squamous-cell carcinoma, dosed 103 weeks, study length 105 weeks
  TD50: 532 mg/kg/day

## CC1CO1 (centres undefined)
mouse, strain B6C3F1, females, inhaled, site: all sites, lesion: hemangioma + hemangiosarcoma, dosed 103 weeks, study length 104 weeks
  TD50: 863 mg/kg/day
mouse, strain B6C3F1, females, inhaled, site: all sites, lesion: hemangioma, dosed 103 weeks, study length 104 weeks
  TD50: 1810 mg/kg/day
mouse, strain B6C3F1, females, inhaled, site: all sites, lesion: hemangiosarcoma, dosed 103 weeks, study length 104 weeks
  TD50: 1610 mg/kg/day
mouse, strain B6C3F1, females, inhaled, site: any site (literature study), lesion: several types, types named in the paper, dosed 103 weeks, study length 104 weeks
  TD50: 226 mg/kg/day
mouse, strain B6C3F1, females, inhaled, site: liver, lesion: hepatocellular adenoma + hepatocellular carcinoma + neoplastic nodule, dosed 103 weeks, study length 104 weeks
  TD50: 979 mg/kg/day
mouse, strain B6C3F1, females, inhaled, site: lung, lesion: alveolar/bronchiolar adenoma + alveolar/bronchiolar carcinoma, dosed 103 weeks, study length 104 weeks
  TD50: 588 mg/kg/day
mouse, strain B6C3F1, females, inhaled, site: lung, lesion: alveolar/bronchiolar adenoma, dosed 103 weeks, study length 104 weeks
  TD50: 588 mg/kg/day
mouse, strain B6C3F1, females, inhaled, site: mammary gland, lesion: adenocarcinoma + adenosquamous carcinoma, dosed 103 weeks, study length 104 weeks
  TD50: 1260 mg/kg/day
mouse, strain B6C3F1, females, inhaled, site: mammary gland, lesion: adenosquamous carcinoma, dosed 103 weeks, study length 104 weeks
  TD50: 2770 mg/kg/day
mouse, strain B6C3F1, females, inhaled, site: nasal cavity, lesion: hemangioma + hemangiosarcoma, dosed 103 weeks, study length 104 weeks
  TD50: 1210 mg/kg/day
mouse, strain B6C3F1, females, inhaled, site: nasal cavity, lesion: hemangioma, dosed 103 weeks, study length 104 weeks
  TD50: 2020 mg/kg/day
mouse, strain B6C3F1, males, inhaled, site: all sites, lesion: hemangioma + hemangiosarcoma, dosed 103 weeks, study length 104 weeks
  TD50: 753 mg/kg/day
mouse, strain B6C3F1, males, inhaled, site: any site (literature study), lesion: several types, types named in the paper, dosed 103 weeks, study length 104 weeks
  TD50: 722 mg/kg/day
mouse, strain B6C3F1, males, inhaled, site: nasal cavity, lesion: hemangioma + hemangiosarcoma, dosed 103 weeks, study length 104 weeks
  TD50: 732 mg/kg/day
mouse, strain B6C3F1, males, inhaled, site: nasal cavity, lesion: hemangioma, dosed 103 weeks, study length 104 weeks
  TD50: 1470 mg/kg/day
mouse, strain B6C3F1, males, inhaled, site: nasal cavity, lesion: hemangiosarcoma, dosed 103 weeks, study length 104 weeks
  TD50: 1610 mg/kg/day
rat, strain Fischer 344, females, inhaled, site: any site (literature study), lesion: several types, types named in the paper, dosed 103 weeks, study length 104 weeks
  TD50: 124 mg/kg/day
rat, strain Fischer 344, females, inhaled, site: cervix uteri + uterus, lesion: endometrial stromal polyp + endometrial stromal sarcoma, dosed 103 weeks, study length 104 weeks
  TD50: 156 mg/kg/day
rat, strain Fischer 344, females, inhaled, site: nasal cavity, lesion: papillary adenoma, dosed 103 weeks, study length 104 weeks
  TD50: 732 mg/kg/day
rat, strain Fischer 344, males, inhaled, site: adrenal gland, lesion: pheochromocytoma, dosed 101 weeks, study length 104 weeks
  TD50: 35.1 mg/kg/day
rat, strain Fischer 344, males, inhaled, site: any site (literature study), lesion: several types, types named in the paper, dosed 103 weeks, study length 104 weeks
  TD50: 220 mg/kg/day
rat, strain Fischer 344, males, inhaled, site: liver, lesion: hepatocellular adenoma + hepatocellular carcinoma + neoplastic nodule, dosed 103 weeks, study length 104 weeks
  TD50: 528 mg/kg/day
rat, strain Fischer 344, males, inhaled, site: liver, lesion: hepatocellular carcinoma, dosed 101 weeks, study length 104 weeks
  TD50: 2960 mg/kg/day
rat, strain Fischer 344, males, inhaled, site: nasal cavity, lesion: papillary adenoma, dosed 103 weeks, study length 104 weeks
  TD50: 826 mg/kg/day
rat, strain Sprague-Dawley, females, by gavage, site: forestomach, lesion: squamous-cell carcinoma, dosed 109 weeks, study length 150 weeks
  TD50: 44.3 mg/kg/day
rat, strain Sprague-Dawley, females, by gavage, site: stomach, lesion: several types, types named in the paper, dosed 109 weeks, study length 150 weeks
  TD50: 39.5 mg/kg/day
rat, strain Wistar-random, females, inhaled, site: any site (literature study), lesion: malignant tumor, dosed 123 weeks, study length 123 weeks
  TD50: 150 mg/kg/day
rat, strain Wistar-random, females, inhaled, site: any site (literature study), lesion: one or several types, types not named, dosed 123 weeks, study length 123 weeks
  TD50: 25.7 mg/kg/day
rat, strain Wistar-random, females, inhaled, site: liver, lesion: cholangioma, dosed 123 weeks, study length 123 weeks
  TD50: 2460 mg/kg/day
rat, strain Wistar-random, females, inhaled, site: mammary gland, lesion: adenocarcinoma, dosed 123 weeks, study length 123 weeks
  TD50: 813 mg/kg/day
rat, strain Wistar-random, females, inhaled, site: mammary gland, lesion: fibroadenoma, dosed 123 weeks, study length 123 weeks
  TD50: 92.6 mg/kg/day
rat, strain Wistar-random, males, inhaled, site: any site (literature study), lesion: malignant tumor, dosed 124 weeks, study length 124 weeks
  TD50: 101 mg/kg/day
rat, strain Wistar-random, males, inhaled, site: any site (literature study), lesion: one or several types, types not named, dosed 124 weeks, study length 124 weeks
  TD50: 79.3 mg/kg/day
rat, strain Wistar-random, males, inhaled, site: respiratory system, lesion: carcinoma, dosed 124 weeks, study length 124 weeks
  TD50: 896 mg/kg/day

## Nc1cc(Cl)c(-c2cc(Cl)c(N)cc2Cl)cc1Cl
mouse, strain dd, females, in feed, site: all sites, lesion: malignant lymphoma, dosed 104 weeks, study length 104 weeks
  TD50: 109 mg/kg/day
mouse, strain dd, females, in feed, site: any site (literature study), lesion: malignant tumor, dosed 104 weeks, study length 104 weeks
  TD50: 87.2 mg/kg/day
rat, strain Wistar, females, in feed, site: liver, lesion: hepatoma, dosed 104 weeks, study length 104 weeks
  TD50: 735 mg/kg/day
rat, strain Wistar, females, in feed, site: urinary bladder, lesion: transitional-cell carcinoma, dosed 104 weeks, study length 104 weeks
  TD50: 2310 mg/kg/day
rat, strain Wistar, males, in feed, site: urinary bladder, lesion: transitional-cell carcinoma, dosed 104 weeks, study length 104 weeks
  TD50: 561 mg/kg/day

## OCC(O)CCl (centres undefined)
rat, strain Charles River CD (Sprague-Dawley), females, by gavage, site: parathyroid, lesion: adenoma, dosed 72 weeks, study length 104 weeks
  carcinogen call: negative (inactive)
rat, strain Charles River CD (Sprague-Dawley), males, by gavage, site: parathyroid, lesion: adenoma, dosed 72 weeks, study length 104 weeks
  TD50: 116 mg/kg/day

## CCc1cc(C(N)=S)ccn1
mouse, strain B6C3F1, females, in feed, site: any site (literature study), lesion: several types, types named in the paper, dosed 78 weeks, study length 104 weeks
  TD50: 450 mg/kg/day (inactive)
mouse, strain B6C3F1, males, in feed, site: any site (literature study), lesion: several types, types named in the paper, dosed 78 weeks, study length 104 weeks
  carcinogen call: negative (inactive)
mouse, strain BALB/c, females, by gavage, site: liver, lesion: papillary carcinoma, dosed 50 weeks, study length 69 weeks
  TD50: 240 mg/kg/day (inactive)
mouse, strain BALB/c, females, by gavage, site: lung, lesion: adenoma, dosed 50 weeks, study length 69 weeks
  TD50: 124 mg/kg/day (inactive)
mouse, strain BALB/c, females, by gavage, site: thyroid gland, lesion: carcinoma, dosed 50 weeks, study length 69 weeks
  TD50: 69.3 mg/kg/day
rat, strain Fischer 344, females, in feed, site: any site (literature study), lesion: several types, types named in the paper, dosed 78 weeks, study length 104 weeks
  carcinogen call: negative (inactive)
rat, strain Fischer 344, females, in feed, site: liver, lesion: hepatocellular adenoma + hepatocellular carcinoma + neoplastic nodule, dosed 78 weeks, study length 104 weeks
  TD50: 508 mg/kg/day
rat, strain Fischer 344, males, in feed, site: any site (literature study), lesion: several types, types named in the paper, dosed 78 weeks, study length 103 weeks
  carcinogen call: negative (inactive)
rat, strain Fischer 344, males, in feed, site: liver, lesion: hepatocellular adenoma + hepatocellular carcinoma + neoplastic nodule, dosed 78 weeks, study length 103 weeks
  TD50: 623 mg/kg/day

## O[C@@H]([C@H](O)[C@H](O)CBr)[C@H](O)CBr
mouse, strain Swiss, females, i.p., site: adrenal gland, lesion: cortical adenoma, dosed 26 weeks, study length 78 weeks
  TD50: 136 mg/kg/day
mouse, strain Swiss, females, i.p., site: all sites, lesion: lymphatic leukemia, dosed 26 weeks, study length 78 weeks
  TD50: 89.8 mg/kg/day
mouse, strain Swiss, females, i.p., site: all sites, lesion: lymphosarcoma, dosed 26 weeks, study length 78 weeks
  TD50: 38.4 mg/kg/day
mouse, strain Swiss, females, i.p., site: any site (literature study), lesion: benign tumor, dosed 26 weeks, study length 78 weeks
  TD50: 130 mg/kg/day
mouse, strain Swiss, females, i.p., site: any site (literature study), lesion: malignant tumor, dosed 26 weeks, study length 78 weeks
  TD50: 11.2 mg/kg/day
mouse, strain Swiss, females, i.p., site: any site (literature study), lesion: several types, types named in the paper, dosed 26 weeks, study length 78 weeks
  TD50: 7.67 mg/kg/day
mouse, strain Swiss, females, i.p., site: lung, lesion: several types, types named in the paper, dosed 26 weeks, study length 78 weeks
  TD50: 21.4 mg/kg/day
mouse, strain Swiss, females, i.p., site: subcutaneous tissue, lesion: carcinoma, dosed 26 weeks, study length 78 weeks
  TD50: 66 mg/kg/day
mouse, strain Swiss, males, i.p., site: any site (literature study), lesion: benign tumor, dosed 26 weeks, study length 78 weeks
  TD50: 92.8 mg/kg/day
mouse, strain Swiss, males, i.p., site: any site (literature study), lesion: malignant tumor, dosed 26 weeks, study length 78 weeks
  TD50: 8.53 mg/kg/day
mouse, strain Swiss, males, i.p., site: any site (literature study), lesion: several types, types named in the paper, dosed 26 weeks, study length 78 weeks
  TD50: 6.03 mg/kg/day
mouse, strain Swiss, males, i.p., site: liver, lesion: several types, types named in the paper, dosed 26 weeks, study length 78 weeks
  TD50: 65.7 mg/kg/day
mouse, strain Swiss, males, i.p., site: lung, lesion: several types, types named in the paper, dosed 26 weeks, study length 78 weeks
  TD50: 11.4 mg/kg/day
rat, strain Charles River CD (Sprague-Dawley), females, i.p., site: any site (literature study), lesion: malignant tumor, dosed 26 weeks, study length 78 weeks
  TD50: 11.5 mg/kg/day
rat, strain Charles River CD (Sprague-Dawley), females, i.p., site: any site (literature study), lesion: several types, types named in the paper, dosed 26 weeks, study length 78 weeks
  TD50: 12.5 mg/kg/day
rat, strain Charles River CD (Sprague-Dawley), females, i.p., site: lung, lesion: carcinoma, dosed 26 weeks, study length 78 weeks
  TD50: 84.6 mg/kg/day
rat, strain Charles River CD (Sprague-Dawley), females, i.p., site: mammary gland, lesion: adenocarcinoma, dosed 26 weeks, study length 78 weeks
  TD50: 24.9 mg/kg/day
rat, strain Charles River CD (Sprague-Dawley), females, i.p., site: peritoneum, lesion: sarcoma, dosed 26 weeks, study length 78 weeks
  TD50: 79.2 mg/kg/day
rat, strain Charles River CD (Sprague-Dawley), males, i.p., site: any site (literature study), lesion: benign tumor, dosed 26 weeks, study length 78 weeks
  TD50: 16.6 mg/kg/day
rat, strain Charles River CD (Sprague-Dawley), males, i.p., site: any site (literature study), lesion: several types, types named in the paper, dosed 26 weeks, study length 78 weeks
  TD50: 7.95 mg/kg/day
rat, strain Charles River CD (Sprague-Dawley), males, i.p., site: mammary gland, lesion: fibroadenoma, dosed 26 weeks, study length 78 weeks
  TD50: 255 mg/kg/day
rat, strain Charles River CD (Sprague-Dawley), males, i.p., site: peritoneum, lesion: sarcoma, dosed 26 weeks, study length 78 weeks
  TD50: 30.9 mg/kg/day
rat, strain Charles River CD (Sprague-Dawley), males, i.p., site: skin, lesion: several types, types named in the paper, dosed 26 weeks, study length 78 weeks
  TD50: 103 mg/kg/day

## CC(=O)Nc1ccc(S(=O)(=O)c2ccc(NC(C)=O)cc2)cc1
rat, strain Buffalo, females, in feed, site: mammary gland, lesion: adenocarcinoma, dosed 43 weeks, study length 92 weeks
  TD50: 55.6 mg/kg/day
